In patent US10821115B2, “Compounds that inhibit Mcl-1 protein” (priority 2017, dated 2020):
Where two headings read alike, the source gives them in different places.

Tests used:
[1] = tested on: human multiple myeloma cell line, OPM-2; test: Cell viability assay (OPM-2 10 FBS), CellTiter-Glo; type: cell-based
How it was run: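 IC50 values come from 4-parameter logistic fits of luminescence signals reflecting cell viability. Treatment lasted 16 h at 37 °C in complete medium with 10% FBS, starting from 3000 cells/well.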

[2] = biological target: recombinant human Mcl-1 (residues 171-327) / Bim interaction (Homo sapiens (Human), UniProt Q07820); test: biochemical; type: binding; conditions: read-out: Mcl-1 HTRF IC50
Chain of recombinant human Mcl-1 (residues 171-327) / Bim interaction (Q07820 171-327): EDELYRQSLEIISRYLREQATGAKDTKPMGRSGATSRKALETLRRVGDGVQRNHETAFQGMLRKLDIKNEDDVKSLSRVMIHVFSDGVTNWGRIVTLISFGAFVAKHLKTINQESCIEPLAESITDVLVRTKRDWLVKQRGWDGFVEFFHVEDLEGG

[3] = read-out: OPM-2 10% FBS IC50 IP, OPM-2 cells, 10% FBS, 16 h, CellTiter-Glo
[4] = TR-FRET, Mcl-1(171-327) / biotin-Bim (51-76)
[5] = 0.1 nM Mcl-1(171-327), 0.05 nM biotin-Bim (51-76)
[6] = Homo sapiens, OPM-2, 16 h, read-out: OPM-2 10% FBS IC50 IP, OPM-2 cells, 10% FBS, 16 h incubation
[7] = Homo sapiens, OPM-2, 16 h, read-out: OPM-2 10% FBS IC50 IP, OPM-2 cells, 10% FBS, 16 h, CellTiter-Glo

| SMILES | IC50 [2, 4] [nM] | IC50 [2, 5] [nM] | IC50 [1, 6] [nM] | also measured |
| --- | --- | --- | --- | --- |
| C[C@@H]1[C@@H](C)C/C=C/[C@@](O)(C#CCN(C)C)[C@@H]2CC[C@H]2CN2C[C@@]3(CCCc4cc(Cl)ccc43)COc3ccc(cc32)C(=O)NS1(=O)=O [Example 100295, (1S,3′R,6′R,7′S,8′E,11′S,12′R)-6-chloro-7′-(3-(dimethylamino)-1-propyn-1-yl)-7′-hydroxy-11′,12′-dimethyl-3,4-dihydro-2H,15′H-spiro[naphthalene-1,22′-[20]oxa[13]thia[1,14]diazatetracyclo [14.7.2.0~3,6~.0~19,24~]pentacosa[8,16,18,24]tetraen]-15′-one 13′,13′-dioxide] | 0.279 | – | – | IC50 [1, 3]: 302 nM |
| C[C@@H]1[C@@H](C)CCC[C@@](O)(CS(=O)(=O)N(C)C)[C@@H]2CC[C@H]2CN2C[C@@]3(CCCc4cc(Cl)ccc43)COc3ccc(cc32)C(=O)NS1(=O)=O [Example 100100, 1-((1S,3′R,6′R,7′S,11′S,12′R)-6-chloro-7′-hydroxy-11′,12′-dimethyl-13′,13′-dioxido-15′-oxo-3,4-dihydro-2H-spiro[naphthalene-1,22′-[20]oxa[13]thia[1,14]diazatetracyclo [14.7.2.0~3,6~.0~19,24~]pentacosa[16,18,24]trien]-7′-yl)-N,N-dimethylmethanesulfonamide] | – | – | – | IC50 [1, 3]: 1320 nM; IC50 [2]: 2.1 nM |
| CCO[C@]1(CN2CCN3CCS(=O)(=O)C[C@@H]3C2)/C=C/C[C@H](C)[C@@H](C)S(=O)(=O)NC(=O)c2ccc3c(c2)N(C[C@@H]2CC[C@H]21)C[C@@]1(CCCc2cc(Cl)ccc21)CO3 [Example 121] | – | 0.084 | – | IC50 ([1]; read-out: OPM-2 10% FBS IC50 IP, OPM-2 cells, 10% FBS, 16 h incubation): 120 nM |
| COCC(COC)N1CCN(C[C@@]2(OC)/C=C/C[C@H](C)[C@@H](C)S(=O)(=O)NC(=O)c3ccc4c(c3)N(C[C@@H]3CC[C@H]32)C[C@@]2(CCCc3cc(Cl)ccc32)CO4)CC1 [Example 304, (1S,3′R,6′R,7′R,8′E,11′S,12′R)-6-chloro-7′-methoxy-7′-((4-(2-methoxy-1-(methoxymethyl)ethyl)-1-piperazinyl)methyl)-11′,12′-dimethyl-3,4-dihydro-2H,15′H-spiro[naphthalene-1,22′-[20]oxa[13]thia[1,14]diazatetracyclo [14.7.2.0~3,6~.0~19,24~]pentacosa[8,16,18,24]tetraen]-15′-one 13′,13′-dioxide] | – | 0.226 | 239 | – |
| CCO[C@@]1(CN2CCN3CCCC[C@@H]3C2)/C=C/C[C@H](C)[C@@H](C)S(=O)(=O)NC(=O)c2ccc3c(c2)N(C[C@@H]2CC[C@H]21)C[C@@]1(CCCc2cc(Cl)ccc21)CO3 [Example 107, (1S,3′R,6′R,7′S,8′E,11′S,12′R)-6-chloro-7′-ethoxy-11′,12′-dimethyl-7′-((9aR)-octahydro-2H-pyrido[1,2-a]pyrazin-2-ylmethyl)-3,4-dihydro-2H,15′H-spiro[naphthalene-1,22′-[20]oxa[13]thia[1,14]diazatetracyclo [14.7.2.0~3,6~.0~19,24~]pentacosa[8,16,18,24]tetraen]-15′-one 13′,13′-dioxide] | – | 1.14 | 872 | – |
| C[C@@H]1[C@@H](C)CCC[C@]2(CO2)[C@@H]2CC[C@H]2CN2C[C@@]3(CCCc4cc(Cl)ccc43)COc3ccc(cc32)C(=O)NS1(=O)=O (stereo in doubt) [Example 100164] | 0.917 | – | – | IC50 [1, 7]: 967 nM |
| C[C@@H]1[C@@H](C)C/C=C/[C@](O)(c2nc(CO)nn2C)[C@@H]2CC[C@H]2CN2C[C@@]3(CCCc4cc(Cl)ccc43)COc3ccc(cc32)C(=O)NS1(=O)=O [Example 100201, (1S,3′R,6′R,7′R,8′E,11′S,12′R)-6-chloro-7′-hydroxy-7′-(3-(hydroxymethyl)-1-methyl-1H-1,2,4-triazol-5-yl)-11′,12′-dimethyl-3,4-dihydro-2H,15′H-spiro[naphthalene-1,22′-[20]oxa[13]thia[1,14]diazatetracyclo [14.7.2.0~3,6~.0~19,24~]pentacosa[8,16,18,24]tetraen]-15′-one 13′,13′-dioxide] | 0.086 | – | – | IC50 [1, 7]: 307 nM |
| CO[C@]1(CN2C[C@@H](C)N(C)[C@@H](C)C2)/C=C/C[C@H](C)[C@@H](C)S(=O)(=O)NC(=O)c2ccc3c(c2)N(C[C@@H]2CC[C@H]21)C[C@@]1(CCCc2cc(Cl)ccc21)CO3 [Example 336, (1S,3′R,6′R,7′R,8′E,11′S,12′R)-6-chloro-7′-methoxy-11′,12′-dimethyl-7′-(((3R,5S)-3,4,5-trimethyl-1-piperazinyl)methyl)-3,4-dihydro-2H,15′H-spiro[naphthalene-1,22′-[20]oxa[13]thia[1,14]diazatetracyclo [14.7.2.0~3,6~.0~19,24~]pentacosa[8,16,18,24]tetraen]-15′-one 13′,13′-dioxide] | – | 0.085 | 51 | – |
| CNC[C@@]1(OC)/C=C/C[C@H](C)[C@@H](C)S(=O)(=O)NC(=O)c2ccc3c(c2)N(C[C@@H]2CC[C@H]21)C[C@@]1(CCCc2cc(Cl)ccc21)CO3 [Example 70, (1S,3′R,6′R,7′R,8′E,11′S,12′R)-6-chloro-7′-methoxy-11′,12′-dimethyl-7′-((methylamino)methyl)-3,4-dihydro-2H,15′H-spiro[naphthalene-1,22′-[20]oxa[13]thia[1,14]diazatetracyclo [14.7.2.0~3,6~.0~19,24~]pentacosa[8,16,18,24]tetraen]-15′-one 13′,13′-dioxide] | – | 1.33 | 3140 | – |
| C[C@@H]1[C@@H](C)C/C=C/[C@](O)(c2ncccc2F)[C@@H]2CC[C@H]2CN2C[C@@]3(CCCc4cc(Cl)ccc43)COc3ccc(cc32)C(=O)NS1(=O)=O [Example 100385, (1S,3′R,6′R,7′R,8′E,11′S,12′R)-6-chloro-7′-(3-fluoro-2-pyridinyl)-7′-hydroxy-11′,12′-dimethyl-3,4-dihydro-2H,15′H-spiro[naphthalene-1,22′-[20]oxa[13]thia[1,14]diazatetracyclo [14.7.2.0~3,6~.0~19,24~]pentacosa[8,16,18,24]tetraen]-15′-one 13′,13′-dioxide] | 0.144 | – | – | IC50 [1, 7]: 144 nM |
| COC(=O)N1CCN(C[C@]2(OC)/C=C/C[C@H](C)[C@@H](C)S(=O)(=O)NC(=O)c3ccc4c(c3)N(C[C@@H]3CC[C@H]32)C[C@@]2(CCCc3cc(Cl)ccc32)CO4)CC1 [Example 266, methyl 4-(((1S,3′R,6′R,7′S,8′E,11′S, 12′R)-6-chloro-7′-methoxy-11′,12′-dimethyl-13′,13′-dioxido-15′-oxo-3,4-dihydro-2H-spiro[naphthalene-1,22′-[20]oxa[13]thia[1,14]diazatetracyclo [14.7.2.0~3,6~.0~19,24~]pentacosa[8,16,18,24]tetraen]-7′-yl)methyl)-1-piperazinecarboxylate] | – | 0.282 | 723 | – |
| CON(C)C[C@]1(OC)/C=C/C[C@H](C)[C@@H](C)S(=O)(=O)NC(=O)c2ccc3c(c2)N(C[C@@H]2CC[C@H]21)C[C@@]1(CCCc2cc(Cl)ccc21)CO3 [Example 212, (1S,3′R,6′R,7′S,8′E,11′S,12′R)-6-chloro-7′-methoxy-7′-((methoxy(methyl)amino)methyl)-11′,12′-dimethyl-3,4-dihydro-2H,15′H-spiro[naphthalene-1,22′-[20]oxa[13]thia[1,14]diazatetracyclo [14.7.2.0~3,6~.0~19,24~]pentacosa[8,16,18,24]tetraen]-15′-one 13′,13′-dioxide] | – | 0.122 | 307 | – |
